Laboratory results published in ChEMBL document CHEMBL1909046, “DrugMatrix in vitro pharmacology data”.

Legend:
[1] = target: Sodium-dependent noradrenaline transporter (Homo sapiens, UniProt P23975); experiment: DRUGMATRIX: Norepinephrine Transporter radioligand binding (ligand: [125I] RTI-55); format: cell membranes, MDCK, Membrane; details: Not Active = under 50% inhibition at 10 µM
[2] = target: T1, D(4) dopamine receptor (Homo sapiens, UniProt P21917); experiment: DRUGMATRIX: Dopamine D4.2 radioligand binding (ligand: [3H] Spiperone); format: cell membranes, CHO-K1, Membrane; details: cho-k1; Not Active = under 50% inhibition at 10 µM
T1 sequence (P21917 whole entry): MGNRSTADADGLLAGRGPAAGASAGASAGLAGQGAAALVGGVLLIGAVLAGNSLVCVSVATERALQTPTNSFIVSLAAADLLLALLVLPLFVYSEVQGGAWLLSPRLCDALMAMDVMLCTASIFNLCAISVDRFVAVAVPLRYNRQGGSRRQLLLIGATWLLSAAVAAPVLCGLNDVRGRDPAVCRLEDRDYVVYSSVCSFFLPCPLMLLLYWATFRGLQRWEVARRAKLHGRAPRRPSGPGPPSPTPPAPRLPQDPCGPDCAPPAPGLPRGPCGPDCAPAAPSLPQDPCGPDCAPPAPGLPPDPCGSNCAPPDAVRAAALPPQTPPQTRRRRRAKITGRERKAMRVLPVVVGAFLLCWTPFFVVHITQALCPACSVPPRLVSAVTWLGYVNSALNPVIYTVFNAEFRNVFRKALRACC

[3] = target: Cytochrome P450 2E1 (Homo sapiens, UniProt P05181); details: bti-tn-5b1-4; also: in other assays of this panel Not Active means under 50% inhibition at 10 µM
Cytochrome P450 2E1, sequence (P05181 whole entry): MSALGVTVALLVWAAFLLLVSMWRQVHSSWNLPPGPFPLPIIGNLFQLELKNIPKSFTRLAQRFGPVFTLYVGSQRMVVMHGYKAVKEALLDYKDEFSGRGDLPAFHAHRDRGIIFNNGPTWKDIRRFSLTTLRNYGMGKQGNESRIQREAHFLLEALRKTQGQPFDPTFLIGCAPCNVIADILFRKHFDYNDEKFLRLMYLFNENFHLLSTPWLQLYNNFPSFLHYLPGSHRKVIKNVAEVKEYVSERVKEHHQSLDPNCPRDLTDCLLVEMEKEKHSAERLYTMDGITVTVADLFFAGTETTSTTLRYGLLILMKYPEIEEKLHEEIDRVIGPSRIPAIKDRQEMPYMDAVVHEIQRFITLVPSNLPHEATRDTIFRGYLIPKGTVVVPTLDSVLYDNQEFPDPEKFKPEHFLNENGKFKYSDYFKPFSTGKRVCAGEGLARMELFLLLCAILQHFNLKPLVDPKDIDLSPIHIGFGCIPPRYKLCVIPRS

[4] = target: Delta-type opioid receptor (Homo sapiens, UniProt P41143); format: cell membranes, HEK293, Membrane; details: hek293; also: in other assays of this panel Not Active means under 50% inhibition at 10 µM
Delta-type opioid receptor, sequence (P41143 whole entry): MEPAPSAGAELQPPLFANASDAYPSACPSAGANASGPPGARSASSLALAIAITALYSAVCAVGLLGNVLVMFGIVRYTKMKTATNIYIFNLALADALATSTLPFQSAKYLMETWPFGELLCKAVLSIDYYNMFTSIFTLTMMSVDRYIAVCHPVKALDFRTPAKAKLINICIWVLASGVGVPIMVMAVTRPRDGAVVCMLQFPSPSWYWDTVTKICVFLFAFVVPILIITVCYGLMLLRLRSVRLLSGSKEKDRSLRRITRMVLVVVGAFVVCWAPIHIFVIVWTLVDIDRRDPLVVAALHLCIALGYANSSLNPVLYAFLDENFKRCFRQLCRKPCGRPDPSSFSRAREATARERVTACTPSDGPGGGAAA

[5] = target: T2, Calcitonin receptor (Homo sapiens, UniProt P30988); format: cell membranes, Membrane; details: t47d; also: in other assays of this panel Not Active means under 50% inhibition at 10 µM
T2 sequence (P30988 whole entry): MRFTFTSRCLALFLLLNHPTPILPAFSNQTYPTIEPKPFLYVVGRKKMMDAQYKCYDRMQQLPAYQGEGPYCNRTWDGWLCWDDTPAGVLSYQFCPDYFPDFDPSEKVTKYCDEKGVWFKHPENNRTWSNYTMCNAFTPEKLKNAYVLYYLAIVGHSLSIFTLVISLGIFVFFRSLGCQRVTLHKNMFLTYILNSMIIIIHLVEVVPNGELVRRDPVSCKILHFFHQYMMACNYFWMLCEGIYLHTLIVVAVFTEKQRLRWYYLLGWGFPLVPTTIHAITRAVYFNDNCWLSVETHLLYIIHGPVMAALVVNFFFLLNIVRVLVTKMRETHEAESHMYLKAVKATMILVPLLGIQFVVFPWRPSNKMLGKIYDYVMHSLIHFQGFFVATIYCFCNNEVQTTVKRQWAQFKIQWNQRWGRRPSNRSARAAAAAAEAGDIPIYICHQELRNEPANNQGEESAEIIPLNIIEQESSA

[6] = target: T3, Neuropeptide Y receptor type 2 (Homo sapiens, UniProt P49146); format: cell membranes, Membrane; details: kan-ts; also: in other assays of this panel Not Active means under 50% inhibition at 10 µM
T3 sequence (P49146 whole entry): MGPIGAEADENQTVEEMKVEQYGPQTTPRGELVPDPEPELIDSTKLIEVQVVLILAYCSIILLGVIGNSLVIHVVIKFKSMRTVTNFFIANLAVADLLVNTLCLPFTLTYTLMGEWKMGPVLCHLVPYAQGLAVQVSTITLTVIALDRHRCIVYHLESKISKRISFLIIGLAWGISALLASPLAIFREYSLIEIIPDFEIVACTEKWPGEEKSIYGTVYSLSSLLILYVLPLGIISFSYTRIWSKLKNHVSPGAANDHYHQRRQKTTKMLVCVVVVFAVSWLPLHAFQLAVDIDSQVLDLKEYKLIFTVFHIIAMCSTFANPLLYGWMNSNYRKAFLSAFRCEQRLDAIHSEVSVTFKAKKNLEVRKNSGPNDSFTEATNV

[7] = target: T4, Adenosine receptor A3 (Homo sapiens, UniProt P0DMS8); format: cell membranes, CHO-K1, Membrane
T4 sequence (P0DMS8 whole entry): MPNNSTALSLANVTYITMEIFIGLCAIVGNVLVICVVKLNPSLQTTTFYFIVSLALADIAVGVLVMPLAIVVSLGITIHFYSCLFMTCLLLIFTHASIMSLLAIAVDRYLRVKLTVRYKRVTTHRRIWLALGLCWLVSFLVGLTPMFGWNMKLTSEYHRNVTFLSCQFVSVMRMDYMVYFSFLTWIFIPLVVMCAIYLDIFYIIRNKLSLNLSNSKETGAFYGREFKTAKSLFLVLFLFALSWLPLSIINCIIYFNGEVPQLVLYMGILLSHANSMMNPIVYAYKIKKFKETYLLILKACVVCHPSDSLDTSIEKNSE

Sodium-dependent noradrenaline transporter, sequence (P23975 whole entry): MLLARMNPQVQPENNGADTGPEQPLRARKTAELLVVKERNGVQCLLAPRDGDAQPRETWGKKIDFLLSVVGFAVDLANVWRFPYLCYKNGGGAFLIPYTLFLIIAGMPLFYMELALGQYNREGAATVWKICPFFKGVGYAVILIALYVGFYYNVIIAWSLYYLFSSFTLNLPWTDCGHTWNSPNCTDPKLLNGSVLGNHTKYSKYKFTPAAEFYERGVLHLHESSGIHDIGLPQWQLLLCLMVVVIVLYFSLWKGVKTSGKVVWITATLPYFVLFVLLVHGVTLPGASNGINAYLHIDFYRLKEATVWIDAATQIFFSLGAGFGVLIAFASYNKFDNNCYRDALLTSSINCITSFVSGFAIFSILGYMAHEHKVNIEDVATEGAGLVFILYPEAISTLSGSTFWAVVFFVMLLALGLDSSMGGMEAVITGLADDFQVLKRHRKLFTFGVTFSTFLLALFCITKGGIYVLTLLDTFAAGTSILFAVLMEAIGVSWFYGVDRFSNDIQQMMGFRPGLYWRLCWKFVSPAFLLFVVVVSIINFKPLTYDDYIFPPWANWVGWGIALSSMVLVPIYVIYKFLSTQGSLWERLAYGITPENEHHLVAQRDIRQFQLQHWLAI

| Compound | IC50 ([1]; mdck) | IC50 [2] | IC50 [3] | Ki [3] | IC50 [4] | IC50 [5] | IC50 [6] | IC50 ([7]; cho-k1) | Ki ([1]; mdck) | Ki [2] | Ki [4] | Ki [5] | Ki [6] | Ki ([7]; cho-k1) | IC50 ([1]; read-out: IC50) [µM] | Ki ([1]; read-out: Ki) [µM] | IC50 ([7]; read-out: IC50) [µM] | Ki ([7]; read-out: Ki) [µM] |
| --- | --- | --- | --- | --- | --- | --- | --- | --- | --- | --- | --- | --- | --- | --- | --- | --- | --- | --- |
| Cc1c(N)nc([C@H](CC(N)=O)NC[C@H](N)C(N)=O)nc1C(=O)N[C@H](C(=O)N[C@H](C)[C@@H](O)[C@H](C)C(=O)N[C@H](C(=O)NCCc1nc(-c2nc(C(=O)NCCC[S+](C)C)cs2)cs1)[C@@H](C)O)[C@@H](O[C@@H]1O[C@@H](CO)[C@@H](O)[C@H](O)[C@@H]1O[C@H]1O[C@H](CO)[C@@H](O)[C@H](OC(N)=O)[C@@H]1O)c1c[nH]cn1.[Br-] [BLEOMYCIN A2] | Not Active | Not Active | Not Active | Not Active | Not Active | Not Active | Not Active | Not Active | – | – | – | – | – | – | – | – | – | – |
| CN(Cc1cc(Br)cc(Br)c1N)C1CCCCC1 [BROMHEXINE] | Not Active | Not Active | Not Active | Not Active | Not Active | Not Active | Not Active | Not Active | – | – | – | – | – | – | – | – | – | – |
| COPPER(II) OXIDE | Not Active | Not Active | Not Active | Not Active | Not Active | Not Active | Not Active | Not Active | Not Active | Not Active | Not Active | Not Active | Not Active | Not Active | – | – | – | – |
| CC(CN1c2ccccc2Sc2ccccc21)N(C)C (stereo not drawn) [PROMETHAZINE] | – | Not Active | Not Active | Not Active | Not Active | Not Active | Not Active | Not Active | – | – | – | – | – | – | 4.24 | 4.2 | – | – |
| NC(N)=Nc1nc(CSCCC(N)=NS(N)(=O)=O)cs1 [FAMOTIDINE] | Not Active | Not Active | Not Active | Not Active | Not Active | Not Active | Not Active | Not Active | – | – | – | – | – | – | – | – | – | – |
| CC(C)(c1ccc(O)cc1)c1ccc(O)cc1 [BISPHENOL A] | – | Not Active | Not Active | Not Active | Not Active | Not Active | Not Active | Not Active | – | – | – | – | – | – | 16.6 | 16.5 | – | – |
| c1ccc2sc(SSc3nc4ccccc4s3)nc2c1 [BENZOTHIAZYL DISULFIDE] | Not Active | Not Active | Not Active | Not Active | Not Active | Not Active | Not Active | – | – | – | – | – | – | – | – | – | 0.347 | 0.196 |
| CC(=O)Nc1ccc2c(c1)Cc1ccccc1-2 [2-ACETYLAMINOFLUORENE] | – | Not Active | Not Active | Not Active | Not Active | Not Active | Not Active | Not Active | – | – | – | – | – | – | 8.59 | 8.52 | – | – |
| Cc1cc(C(C)(C)C)c(O)c(C)c1CC1=NCCN1 [OXYMETAZOLINE] | Not Active | Not Active | Not Active | Not Active | Not Active | Not Active | Not Active | Not Active | – | – | – | – | – | – | – | – | – | – |
| c1ccc(Cn2ccnc2)cc1 | Not Active | Not Active | Not Active | Not Active | Not Active | Not Active | Not Active | Not Active | – | – | – | – | – | – | – | – | – | – |
| Nc1ccc(Cc2ccc(N)cc2)cc1 | Not Active | Not Active | Not Active | Not Active | Not Active | Not Active | Not Active | Not Active | – | – | – | – | – | – | – | – | – | – |
| CC(N)Cc1c[nH]c2ccc(OCc3cccs3)cc12 (stereo not drawn) [BW-723C86] | – | Not Active | Not Active | Not Active | Not Active | Not Active | Not Active | Not Active | – | – | – | – | – | – | 3.63 | 3.6 | – | – |
| CCO [ALCOHOL] | Not Active | Not Active | Not Active | Not Active | Not Active | Not Active | Not Active | Not Active | – | – | – | – | – | – | – | – | – | – |
| CC[C@H]1OC(=O)[C@H](C)[C@@H](O[C@H]2C[C@@](C)(OC)[C@@H](O)[C@H](C)O2)[C@H](C)[C@@H](O[C@@H]2O[C@H](C)C[C@H](N(C)C)[C@H]2O)[C@](C)(O)C[C@@H](C)C(=O)[C@H](C)[C@@H](O)[C@]1(C)O [ERYTHROMYCIN] | Not Active | Not Active | Not Active | Not Active | Not Active | Not Active | Not Active | Not Active | – | – | – | – | – | – | – | – | – | – |
| Nc1nc(N)c2nc(CNc3ccc(C(=O)N[C@@H](CCC(=O)O)C(=O)O)cc3)cnc2n1 [AMINOPTERIN] | Not Active | Not Active | Not Active | Not Active | Not Active | Not Active | Not Active | Not Active | – | – | – | – | – | – | – | – | – | – |
| CC(C)Cn1cnc2c(N)nc3ccccc3c21 [IMIQUIMOD] | Not Active | Not Active | Not Active | Not Active | Not Active | Not Active | Not Active | Not Active | – | – | – | – | – | – | – | – | – | – |
| C[N+](C)(C)CCOP(=O)([O-])OC[C@H](O)CO | Not Active | Not Active | Not Active | Not Active | Not Active | Not Active | Not Active | Not Active | – | – | – | – | – | – | – | – | – | – |
| OC[C@H]1O[C@@H]2O[C@H]3[C@H](O)[C@@H](O)[C@@H](O[C@H]4[C@H](O)[C@@H](O)[C@@H](O[C@H]5[C@H](O)[C@@H](O)[C@@H](O[C@H]6[C@H](O)[C@@H](O)[C@@H](O[C@H]7[C@H](O)[C@@H](O)[C@@H](O[C@H]8[C@H](O)[C@@H](O)[C@@H](O[C@H]1[C@H](O)[C@H]2O)O[C@@H]8CO)O[C@@H]7CO)O[C@@H]6CO)O[C@@H]5CO)O[C@@H]4CO)O[C@@H]3CO [BETADEX] | Not Active | Not Active | Not Active | Not Active | Not Active | Not Active | Not Active | Not Active | – | – | – | – | – | – | – | – | – | – |
| CARBOXYMETHYLCELLULOSE | Not Active | Not Active | Not Active | Not Active | Not Active | Not Active | Not Active | Not Active | Not Active | Not Active | Not Active | Not Active | Not Active | Not Active | – | – | – | – |
| O=C(O)COC(=O)Cc1ccccc1Nc1c(Cl)cccc1Cl [ACECLOFENAC] | Not Active | Not Active | Not Active | Not Active | Not Active | Not Active | Not Active | Not Active | – | – | – | – | – | – | – | – | – | – |
| COc1ccc(C[C@H](N)C(=O)N[C@H]2[C@@H](O)[C@H](n3cnc4c(N(C)C)ncnc43)O[C@@H]2CO)cc1 [PUROMYCIN] | Not Active | Not Active | Not Active | Not Active | Not Active | Not Active | Not Active | Not Active | – | – | – | – | – | – | – | – | – | – |
| O=C(O)c1ccccc1 [BENZOIC ACID] | Not Active | Not Active | Not Active | Not Active | Not Active | Not Active | Not Active | Not Active | – | – | – | – | – | – | – | – | – | – |
